Assays:
[1] = biological target: T1, Laforin (Homo sapiens, UniProt O95278); experiment: Inhibition of Laforin (unknown origin) expressed in Escherichia coli using pNPP substrate after 5 mins by spectrophotometric analysis
T1 sequence (O95278 whole entry): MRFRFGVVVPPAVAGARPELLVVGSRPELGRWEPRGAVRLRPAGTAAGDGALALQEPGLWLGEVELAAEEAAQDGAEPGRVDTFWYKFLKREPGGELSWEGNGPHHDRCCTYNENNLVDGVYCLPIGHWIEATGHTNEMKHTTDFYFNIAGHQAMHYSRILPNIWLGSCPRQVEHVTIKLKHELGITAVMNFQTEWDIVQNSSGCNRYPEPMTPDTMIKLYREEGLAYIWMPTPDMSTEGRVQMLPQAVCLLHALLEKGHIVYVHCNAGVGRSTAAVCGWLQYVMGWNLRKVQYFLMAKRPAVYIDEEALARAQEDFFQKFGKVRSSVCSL

[2] = biological target: Receptor-type tyrosine-protein phosphatase F (Homo sapiens, UniProt P10586); experiment: Inhibition of LAR (unknown origin) expressed in Escherichia coli using pNPP substrate after 5 mins by spectrophotometric analysis
Sequence of Receptor-type tyrosine-protein phosphatase F (P10586 whole entry): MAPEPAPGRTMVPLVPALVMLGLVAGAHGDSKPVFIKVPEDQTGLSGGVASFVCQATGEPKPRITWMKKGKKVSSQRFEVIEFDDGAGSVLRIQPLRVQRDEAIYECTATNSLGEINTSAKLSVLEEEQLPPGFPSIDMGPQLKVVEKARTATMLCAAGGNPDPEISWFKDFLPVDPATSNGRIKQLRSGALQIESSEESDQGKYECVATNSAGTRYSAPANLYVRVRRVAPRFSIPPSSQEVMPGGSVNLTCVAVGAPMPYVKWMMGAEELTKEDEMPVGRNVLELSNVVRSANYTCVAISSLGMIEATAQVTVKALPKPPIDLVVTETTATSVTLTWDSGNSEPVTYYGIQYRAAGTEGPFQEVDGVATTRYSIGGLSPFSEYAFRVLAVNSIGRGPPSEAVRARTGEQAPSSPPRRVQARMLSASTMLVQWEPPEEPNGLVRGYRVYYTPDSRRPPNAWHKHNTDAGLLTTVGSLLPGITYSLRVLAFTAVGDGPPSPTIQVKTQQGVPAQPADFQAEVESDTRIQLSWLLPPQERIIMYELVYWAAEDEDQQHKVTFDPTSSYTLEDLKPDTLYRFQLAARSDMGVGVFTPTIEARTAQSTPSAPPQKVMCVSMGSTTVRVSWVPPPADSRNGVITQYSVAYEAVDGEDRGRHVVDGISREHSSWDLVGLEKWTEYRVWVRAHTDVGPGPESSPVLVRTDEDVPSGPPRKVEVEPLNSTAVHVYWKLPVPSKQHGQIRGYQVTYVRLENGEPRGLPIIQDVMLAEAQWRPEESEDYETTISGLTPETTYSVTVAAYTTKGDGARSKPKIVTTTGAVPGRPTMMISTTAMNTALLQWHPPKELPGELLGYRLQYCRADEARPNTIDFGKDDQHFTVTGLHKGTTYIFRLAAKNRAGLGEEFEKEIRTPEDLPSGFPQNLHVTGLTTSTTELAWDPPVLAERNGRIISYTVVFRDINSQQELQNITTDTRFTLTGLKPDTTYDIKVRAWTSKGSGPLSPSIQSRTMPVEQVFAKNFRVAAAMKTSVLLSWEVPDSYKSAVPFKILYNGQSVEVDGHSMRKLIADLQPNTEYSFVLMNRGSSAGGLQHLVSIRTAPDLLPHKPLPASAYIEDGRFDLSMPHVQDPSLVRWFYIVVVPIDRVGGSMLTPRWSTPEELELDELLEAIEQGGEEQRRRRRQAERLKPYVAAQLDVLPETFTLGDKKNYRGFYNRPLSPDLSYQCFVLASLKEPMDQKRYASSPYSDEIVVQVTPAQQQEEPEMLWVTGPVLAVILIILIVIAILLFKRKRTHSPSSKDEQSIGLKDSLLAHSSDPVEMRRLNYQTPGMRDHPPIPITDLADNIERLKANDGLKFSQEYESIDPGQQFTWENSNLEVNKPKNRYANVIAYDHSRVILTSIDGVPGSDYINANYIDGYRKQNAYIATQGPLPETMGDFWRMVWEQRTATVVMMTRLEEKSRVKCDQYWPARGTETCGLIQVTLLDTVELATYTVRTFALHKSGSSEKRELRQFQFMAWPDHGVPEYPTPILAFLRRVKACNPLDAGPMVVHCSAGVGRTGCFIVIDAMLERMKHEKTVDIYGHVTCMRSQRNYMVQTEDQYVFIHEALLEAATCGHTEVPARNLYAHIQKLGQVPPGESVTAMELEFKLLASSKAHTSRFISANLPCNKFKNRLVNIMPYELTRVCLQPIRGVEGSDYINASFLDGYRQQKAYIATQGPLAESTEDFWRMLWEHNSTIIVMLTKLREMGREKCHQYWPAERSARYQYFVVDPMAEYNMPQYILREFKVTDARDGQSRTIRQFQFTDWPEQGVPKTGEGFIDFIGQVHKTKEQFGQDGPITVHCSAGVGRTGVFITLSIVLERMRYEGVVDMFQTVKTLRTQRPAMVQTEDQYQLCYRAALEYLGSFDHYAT

[3] = biological target: Receptor-type tyrosine-protein phosphatase alpha (Homo sapiens, UniProt P18433); experiment: Inhibition of PTPalpha (unknown origin) expressed in Escherichia coli using pNPP substrate after 5 mins by spectrophotometric analysis
Sequence of Receptor-type tyrosine-protein phosphatase alpha (P18433 whole entry): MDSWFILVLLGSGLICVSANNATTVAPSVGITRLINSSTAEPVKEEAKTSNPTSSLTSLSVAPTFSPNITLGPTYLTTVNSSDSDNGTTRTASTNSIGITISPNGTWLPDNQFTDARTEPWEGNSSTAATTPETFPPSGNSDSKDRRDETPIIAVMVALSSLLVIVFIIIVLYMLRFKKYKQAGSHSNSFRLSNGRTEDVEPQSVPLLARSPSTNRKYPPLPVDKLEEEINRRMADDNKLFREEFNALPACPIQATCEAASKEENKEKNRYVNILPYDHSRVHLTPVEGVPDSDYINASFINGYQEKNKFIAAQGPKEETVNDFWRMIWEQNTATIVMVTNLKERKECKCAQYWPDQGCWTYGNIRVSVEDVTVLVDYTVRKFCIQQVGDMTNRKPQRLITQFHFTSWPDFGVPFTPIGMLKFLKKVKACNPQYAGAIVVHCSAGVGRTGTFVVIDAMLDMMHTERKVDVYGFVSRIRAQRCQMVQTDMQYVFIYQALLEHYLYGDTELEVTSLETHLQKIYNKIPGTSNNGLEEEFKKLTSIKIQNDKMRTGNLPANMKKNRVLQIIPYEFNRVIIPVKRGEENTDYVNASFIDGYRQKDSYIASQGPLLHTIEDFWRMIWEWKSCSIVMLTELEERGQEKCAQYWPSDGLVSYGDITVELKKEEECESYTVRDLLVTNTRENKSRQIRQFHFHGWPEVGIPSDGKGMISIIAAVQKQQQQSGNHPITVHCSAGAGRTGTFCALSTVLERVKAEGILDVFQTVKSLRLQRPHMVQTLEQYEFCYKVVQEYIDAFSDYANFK

[4] = biological target: T2, Tyrosine-protein phosphatase non-receptor type 2 (Homo sapiens, UniProt P17706); experiment: Inhibition of TCPTP (unknown origin) expressed in Escherichia coli using pNPP substrate after 5 mins by spectrophotometric analysis
T2 sequence (P17706 whole entry): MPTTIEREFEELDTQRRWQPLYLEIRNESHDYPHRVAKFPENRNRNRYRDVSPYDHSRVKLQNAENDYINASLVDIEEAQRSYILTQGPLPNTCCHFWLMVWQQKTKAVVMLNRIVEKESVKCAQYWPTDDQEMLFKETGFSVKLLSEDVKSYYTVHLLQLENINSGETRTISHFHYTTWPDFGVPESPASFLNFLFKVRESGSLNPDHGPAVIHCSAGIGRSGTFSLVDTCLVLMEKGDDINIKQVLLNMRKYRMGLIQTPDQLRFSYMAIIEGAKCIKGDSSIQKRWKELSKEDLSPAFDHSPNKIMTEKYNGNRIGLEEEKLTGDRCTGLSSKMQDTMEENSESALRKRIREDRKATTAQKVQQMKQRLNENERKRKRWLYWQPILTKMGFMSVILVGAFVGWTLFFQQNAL

IC50 [1]: > 30 µM | IC50 [2]: > 10 µM | IC50 [3]: > 10 µM | IC50 [4]: 6.1 µM
Structure (SMILES): O=C(O)c1cc2c(C#Cc3cc(F)cc(F)c3)c(-c3ccccc3)oc2cc1O
